The source of these data is PMC8197720, “Targeted radioimmunotherapy with the iodine-131-labeled caerin 1.1 peptide for human anaplastic thyroid cancer in nude mice” (Annals of Nuclear Medicine, 2021).

The test system of series [1] is cervical cancer cell (TC-1). The settings on record: 30 μg of peptide; cited from earlier work. The text has this:
First, ^131I-F1 was successfully synthesized using the chloramine-T method. […] Furthermore, a subcutaneous xenograft model was used to investigate the antitumor activity of ^131I-F ...

The test system of a further series is CAL-62 tumor. Put plainly: CAL-62 subcutaneous xenograft treatment experiment with H&E and TUNEL staining. The format is in vivo, BALB/C nude mice. The settings on record: tumor sections after treatment, compared to PBS group. As to the method: (§1) To reduce the unnecessary thyroid uptake of ^131I, before the in vivo experiments, all nude mice were fed potassium iodide in a concentration of 0.1% for 3 days to saturate the thyroid. CAL-62 tumor-bearing mice were randomly divided into four groups (n = 5 per group) that received one of the following treatments: PBS, F1 only, ^131I-F1, ^131I only. The mice were injected intratumorally with 100 µl PBS containing 8 µg of F1 peptide, 200 µCi of ^131I or 8 µg of F1 peptide labeled with 200 µCi ^131I every 3 days for a total of three times. Then, 3 days after the final treatment, the mice were sacrificed, and the tumors were isolated and weighed.

The nature of series [2]: Body weight of CAL-62 tumor-bearing mice under treatment. The settings on record: intratumoral, 8 µg F1 and/or 200 µCi 131I every 3 days, three times, n = 5, mean ± SD. The format is in vivo, BALB/C nude mice. On the procedure:
as §1
Next, we studied whether F1 was able to inhibit CAL-62 cell growth in vivo. Nude mice were subcutaneously injected with 5 × 10^5 CAL-62 cells. When the tumor diameters were close to 6 mm, the mice were treated with 100 µl PBS containing 8 µg of F1 peptide, 200 µCi of ^131I or 8 µg of F1 peptide labeled with 200 µCi ^131I every 3 days for a total of three times. […] The mice were euthanized, and the tumors were isolated and weighed.

As for caerin 1.9 [F3], the “Inhibitory effect on TC-1 in vivo” value in series [1] is “significant inhibitory effect”.

As to `[131I-].[Na+]` [^131I, iodine-131], in the series with CAL-62 tumor, the “H&E staining of tumors (ablation/necrosis of tumor cells)” value was “only a few necrosis events”. Also, the “Weight of the mice three days after the final treatment” value in series [2] was 16.43 ± 1.386 g.
